Assay results as given in patent publication US20190300911A1, “METHODS FOR INCREASING THE FREQUENCY OF GENE TARGETING BY CHROMATIN MODIFICATION” (FRIEDRICH MIESCHER INSTITUTE FOR BIOMEDICAL RESEARCH, priority 2016, published 2019).
Where a SMILES comes first, the peptide text is derived from it. The star is where a group is joined. Cbz = O=C(OCc1ccccc1)*

What was measured:
[1] = biological target: T1, proteasome (Saccharomyces cerevisiae, UniProt P23724+P30656); test: Suppression of damage-induced histone degradation by proteasome inhibition; type: cell-based; settings: Zeocin-damaged cells
T1 construct: endogenous in cells; host or cells: Saccharomyces cerevisiae (budding yeast) cells treated with Zeocin

[2] = test system: S phase chromatin; test: Super-resolution microscopy of TetR-mCherry tagged locus 3D volume (chromatin expansion); type: cell-based, Saccharomyces cerevisiae; settings: cells fixed 30 min after exposure to different amounts of Zeocin
From the text: Structured illumination images were acquired on a Zeiss Elyra S.1 microscope with a Andor iXon 885 EMCCD camera using a HR diode 488 […] solid state laser, BP 525-580+LP 750 filter and a PLAN-APOCHROMAT 63×N.A. 1.4 oil DIC objective lens. Cells were first fixed in PFA 4%, washed 3 times in PBS and then attached to a thin SIM grade Zeiss 1.5 glass coverslip using Concanavalin A. Cells were fully sectioned by 50-65 slices with […] intervals taken at 60 ms exposures per slice using 5 rotations of the illumination grid. Brightfield images of the cells were also acquired using an X-Cite PC 120 EXFO Metal Halide lamp. Zen Black was used to process the images using automatic settings with the Raw Scale option selected. 3D stacks were then analyzed by using pixel classification and a custom Matlab script to determine the spot volumes and other features as follows. […] Features calculated at the labeled pixels and their local neighborhood are then used to train a pixel classifier based on a Random Forest ensemble learning method. […] Finally, the program generates an ascii file where the key features like volume and solidity 3D and descriptive statistics are listed for all detected nuclei and foci. The solidity factor is calculated as the proportion of pixels in the 3D convex hull. […]

[3] = test system: Histone H3 (H3-CFP); test: Time-lapse live cell tracking of H3-CFP in microfluidic chambers; type: cell-based, Saccharomyces cerevisiae
Description: For H3-CFP (Strain GA-3364 and derivatives) and 2-foci (Strain GA-9777) live cell fluorescent microscopy, LOG phase cells were trapped with 3 pulses of 5 psi pressure in CellASIC plates of the ONIX microfluidic perfusion system (Merck Millipore). All perfusions were done at a continuous flow rate of 2 psi pressure. After a 20-30 minute recovery phase, cells were treated for 30 minutes with the indicated amount of Zeocin prior to high-speed CFP-RFP tracking microscopy. The recovery phase of H3-CFP tagged cells was 20 minutes after which they were treated with a pulse of Zeocin for 1 hour and H3-CFP fluorescence was followed for additional 40 minutes after treatment.
Live microscopy was done on a temperature controllable Olympus IX81 microscope with a Yokogawa CSU-X1 scanning head equipped with two EM-CCD EvolveDelta (Photometrics) cameras, an ASI MS-2000 Z-piezo stage and a PlanApo x100, NA 1.45 total internal reflection fluorescence microscope oil objective and Visiview software. For mRFP-GFP or mRFP-CFP high-speed tracking, fluorophores were excited with lasers at 561 nm (mCherry or mRFP) and 491 nm (GFP) or 440 nm (CFP) and emitted fluorescence was acquired simultaneously on separate cameras (Semrock FF01-617/73-25 filter for mCherry/mRFP and Semrock FF02-525/40-25 filter for GFP or Semrock FF01-475/42-25 for CFP). High-speed time-lapse series were conducted taking 8 optical slices per stack either every 80 ms for 1 min or 300 ms for 2 min, with 10 ms exposure times per slice respectively. Time-lapse image stacks were analyzed as in Dion et al. 9, using a custom made ImageJ (FIJI) plug-in36 to extract coordinates of locus position from the movies. Phototoxicity was tested by exposing wild-type cells (GA-6879) to standard imaging conditions and following outgrowth for 5 h by morphological analysis, comparing them with unexposed cells. […] Boxplot graphs were generated by plotting all measured distances of treated or untreated cells. […] For each frame, the distance vector of tracks in two channels was measured by selecting the two spots with minimal distance. […]

[4] = test system: nucleosome occupancy; test: Genome-wide nucleosome mapping (MNase-seq with Candida glabrata spike-in); type: cell-based, Saccharomyces cerevisiae; settings: Zeocin 500 μg/ml for 1 hour; reads normalized to C. glabrata
Description: Strains tested for changes in nucleosome occupancy (GA-6879 and GA-8386) were grown in appropriate media to OD600=0.8. Cultures were split into two and one of them was treated with Zeocin (500 μg/ml) for 1 hour. At this point the OD600 absorbance of each sample was measured and Candida glabrata cells were spiked in to 1/10 according to the sample OD600. Cells were washed three times with ice cold TBS (20 MM Tris.HCl pH8.0 and 150 mM NaCl) and lysed by beat beating in MNase digestion buffer (10 mM Tris pH 8.0, 50 mM NaCl, 5 mM MgCl2, 1 mM CaCl2), 1 mM beta-mercaptoethanol, 0.5 mM spermidine, 0.075% NP40). The obtained chromatin samples were MNase digested to isolate mono-nucleosomes and sequencing libraries were prepared according to the method described in Wiechens, N. et al. (Wiechens et al. 2016). Paired end libraries of MNase digested chromatin were sequenced using Illumina HiSeq technology. Fastq files containing raw reads were aligned to the S. cerevisiae and C. glabrata reference genomes by Bowtie2 with option of maximum fragment length 500 for nucleosome fragments. The nucleosome dyads at each position were calculated in a defined window flanking the transcription start site (TSS). […] The reads were further normalized by dividing the fraction of C. glabrata reads in the sample. […]

[5] = test system: core histones H2A, H2B, H3 and H4; test: Quantitative SILAC mass spectrometry of histone abundance before and after Zeocin; type: cell-based, Saccharomyces cerevisiae; settings: acute treatment (1 hour) with Zeocin
Description: For SILAC based mass spectrometry, lysine and arginine double labeling of the lys2A arg4A strain yAG-06A was achieved by growth for at least ten generations in “heavy” medium as described previously in Gruhler et al. 34. After growth to LOG phase or at G1 cell cycle arrest, “light” labeled cells (or “heavy” labeled cells for label-swap controls) were treated for 1 h with Zeocin and mixed 1:1 based on exact cell count with “heavy” labeled (“light” for label-swap control), non-treated control cells. Prior to mixing, FACS and Western blot samples were taken to test for cell cycle distribution and DDC activation.
Chromatin fractionation was performed as previously described with the modification that chromatin obtained from SILAC labeled yeast samples was resuspended in Urea Buffer (50 mM TRIS pH 7.5, 6 M Urea, 1% SDS, 5 mM EDTA) sonicated for optimal solubilizing of proteins followed by a TCA protein precipitation step prior to downstream mass spectrometric analysis. To avoid carbamylation in urea buffer, samples were kept below 20° C. and quickly processed. Control samples from whole cell extract (WCE), supernatant (SUP) and chromatin fraction (CHR) were analyzed with SDS-PAGE (Novex 8-16% Tris-Glycine Gel, Invitrogen) gel electrophoresis followed by Coomassie staining. […]

[6] = test system: chromatin fiber; test: 3D distance between two differentially labeled genomic loci (chromatin flexibility); type: cell-based, Saccharomyces cerevisiae; settings: for average inter-spot distance between lacI-GFP and TetR-mRFP tagged loci after DNA damage: loci 320 kbp apart on Chr XIV
From the text: Live microscopy was done on a temperature controllable Olympus IX81 microscope with a Yokogawa CSU-X1 scanning head equipped with two EM-CCD EvolveDelta (Photometrics) cameras, an ASI MS-2000 Z-piezo stage and a PlanApo x100, NA 1.45 total internal reflection fluorescence microscope oil objective and Visiview software. For mRFP-GFP or mRFP-CFP high-speed tracking, fluorophores were excited with lasers at 561 nm (mCherry or mRFP) and 491 nm (GFP) or 440 nm (CFP) and emitted fluorescence was acquired simultaneously on separate cameras (Semrock FF01-617/73-25 filter for mCherry/mRFP and Semrock FF02-525/40-25 filter for GFP or Semrock FF01-475/42-25 for CFP). High-speed time-lapse series were conducted taking 8 optical slices per stack either every 80 ms for 1 min or 300 ms for 2 min, with 10 ms exposure times per slice respectively. Time-lapse image stacks were analyzed as in Dion et al. 9, using a custom made ImageJ (FIJI) plug-in36 to extract coordinates of locus position from the movies. Phototoxicity was tested by exposing wild-type cells (GA-6879) to standard imaging conditions and following outgrowth for 5 h by morphological analysis, comparing them with unexposed cells. Time-series acquired from Strains GA-9227 and GA-9777 (Two-spot data) were deconvolved using Huygens Remote Manager, channel-aligned and cropped to contain one single cell/nucleus with the two respective fluorescent spots. Spot tracking over time was done with the ImageJ plugin TrackMate included in Fiji37. Boxplot graphs were generated by plotting all measured distances of treated or untreated cells. Relative MSD analysis was performed with KNIME38. For each frame, the distance vector of tracks in two channels was measured by selecting the two spots with minimal distance. The inventors performed an MSD analysis on the distance vectors for all frames and tracks with a maximum MSD(t) value bigger than 10 μm^2 were considered as outliers (due to mis-matching two distant tracks) and removed from the analysis. Relative MSD vs. t was averaged over all tracks and plotted using R.

[7] = test system: histone H3/H4; test: Quantitative immunoblot analysis of histone H3/H4 loss and DDC activation; type: cell-based, Saccharomyces cerevisiae
Description: The total protein content in the relevant samples was determined with the Quant-iT protein assay kit (Thermo Scientific) and 8.75 μg of total protein was loaded and run on Criterion TGX Stain-Free 8-16% (Biorad) gels under SDS denaturing electrophoresis conditions. Rapid fluorescent detection of all proteins in the gel or on the membrane was done according to the manufacturer's specifications and protein transfer on PVDF membranes was performed using the Trans-Blot Turbo system. Rad53 protein was detected using a custom-made mouse monoclonal antibody (GenScript) against FHA2 domain of Rad53. Anti-yH2A was similarly a custom-made polyclonal antibody, that is specific for phospho-S129 in yeast H2A.

Compound	effect on DNA damage-induced H3 or H4 degradation [1]	decompaction of S phase chromatin (3D TetR-mCherry foci volumes) [2]	time of Zeocin exposure within which histone H3 degradation occurred ([3]; H3-CFP fluorescence) [min]	Histone H3 degradation compared to undamaged cells ([3]; H3-CFP fluorescence, within 30 minutes of Zeocin exposure) [%]	DSBs per genome generated ([3]; pulse-treated for 1 h with Zeocin)	nucleosome occupancy within promoters and across coding regions [4]	levels of the histone variant Htz1 (H2A.Z) [5]	loss of all core histones H2A, H2B, H3 and H4 (ratios of non-modified histone peptides, damage over control L/H) [5]	average inter-spot distance between lacI-GFP and TetR-mRFP tagged loci after DNA damage ([6]; G1 cells, printed 0.97-1.2 (before-after)) [μm]	average inter-spot distance between lacI-GFP and TetR-mRFP tagged loci after DNA damage ([6]; S-phase cells, printed 0.99-1.12 (before-after)) [μm]	inter-spot dynamics and distances between CFP-lacI and TetR-mRFP tagged foci ([6]; loci 50 kbp apart on Chr III, real time)	histone depletion in histone-shutdown strain with constitutive H3/H4 expression ([7]; growth in media with low level galactose, compared with cells with endogenous histone genes)	DDC activation (yH2A signal) ([7]; quantitative immunoblot)	relationship between histone H3/H4 loss and Zeocin treatment ([7]; quantitative immunoblot)
CC(C)C[C@@H](C=O)NC(=O)[C@H](CC(C)C)NC(=O)[C@H](CC(C)C)NC(=O)OCc1ccccc1 [MG132] (Cbz-Leu-Leu-Leu-aldehyde)	suppressed	–	–	–	–	–	–	–	–	–	–	–	–	–
Zeocin	–	dose-dependent decompaction	≤ 30	~30	4-7 DSBs per genome	drop in nucleosome occupancy	remained stable	20-40%	1.2	1.12	robust increase	same depletion effect	robust DDC activation	dose-dependent relationship
